What was measured:
[1] = target: T1, NPY Y1-Rs (Mus musculus, UniProt Q04573); test: Effect of pretreatment with 1 (BMS-193885) on tissue distribution of radioactivity; type: in vivo, mice; settings: 30 min post-injection, 1 10 mg/kg 20-30 min before tracer, vs control
T1 construct: in the lung, spleen, and kidney, which are rich in NPY Y1-Rs; from tissue; host or cells: organs of living mice (blood, heart, lung, spleen, kidney, liver, pancreas, muscle, brain etc.)
T1 sequence (Q04573 1-382): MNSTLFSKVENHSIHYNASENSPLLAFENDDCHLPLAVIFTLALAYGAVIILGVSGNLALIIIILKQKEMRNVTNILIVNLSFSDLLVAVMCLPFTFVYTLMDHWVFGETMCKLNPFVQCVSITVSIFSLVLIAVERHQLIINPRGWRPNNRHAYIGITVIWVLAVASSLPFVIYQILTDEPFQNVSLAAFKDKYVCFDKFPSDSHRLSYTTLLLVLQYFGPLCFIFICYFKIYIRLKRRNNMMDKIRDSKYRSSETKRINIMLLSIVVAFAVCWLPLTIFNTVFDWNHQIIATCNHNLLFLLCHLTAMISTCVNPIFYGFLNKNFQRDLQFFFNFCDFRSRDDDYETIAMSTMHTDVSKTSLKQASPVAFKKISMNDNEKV
Procedure: [^11C]1 (7.1–14 MBq/0.079–0.23 nmol) or [^11C]2 (6.0 MBq/0.16 nmol) was intravenously injected into mice (aged 7–8 weeks, weighing 32–36 g, n = 4–8) 20–30 min after the administration of the solution of 1 (10 mg/kg body weight [b.w.]/0.1 mL water containing 20% Tween 80), elacridar (5 mg/kg b.w./0.1 mL water), or a control fluid (0.1 mL water). Mice were euthanized by cervical dislocation at 30 min post-injection.
Blood samples were collected by heart puncture. Tissues were dissected and weighed. […] The tissue uptake of radioactivity was expressed as the percentage of injected dose detected per gram of sample (%ID/g, tissue radioactivity/g tissue/injected radioactivity × 100).

[2] = Biodistribution of radioactivity in mice after tracer injection; type: in vivo; settings: for Radioactivity level, blood / Radioactivity level, brain / Radioactivity level, heart / Radioactivity level, kidney / Radioactivity level, liver / Radioactivity level, lung / Radioactivity level, muscle / Radioactivity level, pancreas / Radioactivity level, small intestine / Radioactivity level, spleen: mean±S.D. n=4
Procedure: [^11C]1 (13 MBq/0.12 nmol) or [^11C]2 (15 MBq/0.36 nmol) was intravenously injected into mice (aged 7–8 weeks, weighing 33–38 g, n = 4). Mice were euthanized by cervical dislocation at 5, 15, 30, or 60 min post-injection.
Blood samples were collected by heart puncture. Tissues were dissected and weighed. The radioactivity in samples was measured with an automatic gamma counter (Wizard 3′′ 1480, PerkinElmer, Waltham, MA, USA). The tissue uptake of radioactivity was expressed as the percentage of injected dose detected per gram of sample (%ID/g, tissue radioactivity/g tissue/injected radioactivity × 100).

[3] = Analysis of metabolites in mouse plasma (radio-HPLC); type: in vivo, mice
Procedure: [^11C]1 (37–56 MBq/0.73–0.95 nmol) or [^11C]2 (46–61 MBq/1.1–1.5 nmol) was intravenously injected into mice (aged 7–9 weeks, weighing 33–43 g, n = 4). Mice were euthanized by cervical dislocation at 30 min post-injection. Blood samples taken by heart puncture were collected into heparinized syringes. Samples were centrifuged at 13,000×g (Model 5500, KUBOTA, Tokyo, Japan) for 3 min at 4 °C to obtain plasma (0.1–0.2 mL). Plasma samples were added to equivalent volumes of 1 mol/L ammonium acetate solution. Samples were directly loaded into the injector loop, and analyzed using the combination of column-switching HPLC and on-line solid-phase extraction as a modification of the previously described procedures (Chitneni et al. [2008]; Gillings [2009]; Greuter et al. [2005]; Hilton et al. [2000]; Kawamura et al. [2013]). HPLC analysis was performed using the radio-HPLC system for metabolite analysis mentioned in the ‘General’ section above, and also using a Cadenza HS-C18 column (3 μm mesh, 10 mm i.d. × 150 mm length; Imtakt, Kyoto, Japan) fitted with a Cadenza HS-C18 guard cartridge (3 μm mesh, 10 mm i.d. × 8 mm length; Imtakt). Elution was performed using a 0.1 mol/L ammonium acetate solution for 3 min after loading, a mixture of 90% acetonitrile solution and water (0:100 to 40:60, vol./vol.) from 3 to 4 min after loading, and then a mixture of 90% acetonitrile solution and water (40:60, vol./vol.) from 4 to 12 min after loading. The flow rate was 4 mL/min. The retention times of [^11C]1 and [^11C]2 were 10.0 and 10.5 min, respectively.

Change of radioactivity level in blood by pretreatment with 1 ([1]; blood): not changed
Change of radioactivity level in brain by pretreatment with 1 ([1]; brain): not changed
Change of radioactivity level in heart by pretreatment with 1 ([1]; heart): not changed
Change of radioactivity level in kidney by pretreatment with 1 ([1]; kidney): significantly decreased
Change of radioactivity level in lung by pretreatment with 1 ([1]; lung): significantly decreased
Change of radioactivity level in muscle by pretreatment with 1 ([1]; muscle): not changed
Change of radioactivity level in pancreas by pretreatment with 1 ([1]; pancreas): not changed
Change of radioactivity level in spleen by pretreatment with 1 ([1]; spleen): significantly decreased
Radioactivity level, blood ([2]; 5 min after i.v. injection): 0.65±0.05 %ID/g
Radioactivity level, blood ([2]; 15 min after i.v. injection): 0.21±0.01 %ID/g
Radioactivity level, blood ([2]; 30 min after i.v. injection): 0.17±0.02 %ID/g
Radioactivity level, blood ([2]; 60 min after i.v. injection): 0.19±0.20 %ID/g
Radioactivity level, brain ([2]; 5 min after i.v. injection): 0.05±0.02 %ID/g
Radioactivity level, brain ([2]; 15 min after i.v. injection): 0.04±0.04 %ID/g
Radioactivity level, brain ([2]; 30 min after i.v. injection): 0.01±0.00 %ID/g
Radioactivity level, brain ([2]; 60 min after i.v. injection): 0.03±0.01 %ID/g
Radioactivity level, heart ([2]; 5 min after i.v. injection): 0.69±0.09 %ID/g
Radioactivity level, heart ([2]; 15 min after i.v. injection): 0.42±0.02 %ID/g
Radioactivity level, heart ([2]; 30 min after i.v. injection): 0.28±0.04 %ID/g
Radioactivity level, heart ([2]; 60 min after i.v. injection): 0.14±0.04 %ID/g
Brain penetration ([2]; judged from brain radioactivity at 30 min): penetrated the brain poorly
Radioactivity level, kidney ([2]; 5 min after i.v. injection): 13.25±1.18 %ID/g
Radioactivity level, kidney ([2]; 15 min after i.v. injection): 10.96±0.51 %ID/g
Radioactivity level, kidney ([2]; 30 min after i.v. injection): 9.89±0.52 %ID/g
Radioactivity level, kidney ([2]; 60 min after i.v. injection): 9.23±1.61 %ID/g
Radioactivity level, liver ([2]; 5 min after i.v. injection): 29.54±1.57 %ID/g
Radioactivity level, liver ([2]; 15 min after i.v. injection): 24.28±3.04 %ID/g
Radioactivity level, liver ([2]; 30 min after i.v. injection): 15.54±4.41 %ID/g
Radioactivity level, liver ([2]; 60 min after i.v. injection): 8.43±2.71 %ID/g
Radioactivity level, lung ([2]; 5 min after i.v. injection): 1.00±0.08 %ID/g
Radioactivity level, lung ([2]; 15 min after i.v. injection): 0.79±0.11 %ID/g
Radioactivity level, lung ([2]; 30 min after i.v. injection): 0.82±0.13 %ID/g
Radioactivity level, lung ([2]; 60 min after i.v. injection): 0.65±0.08 %ID/g
Radioactivity level, muscle ([2]; 5 min after i.v. injection): 0.44±0.21 %ID/g
Radioactivity level, muscle ([2]; 15 min after i.v. injection): 0.30±0.02 %ID/g
Radioactivity level, muscle ([2]; 30 min after i.v. injection): 0.38±0.17 %ID/g
Radioactivity level, muscle ([2]; 60 min after i.v. injection): 0.33±0.19 %ID/g
Radioactivity level, pancreas ([2]; 5 min after i.v. injection): 1.20±0.18 %ID/g
Radioactivity level, pancreas ([2]; 15 min after i.v. injection): 1.27±0.11 %ID/g
Radioactivity level, pancreas ([2]; 30 min after i.v. injection): 1.18±0.18 %ID/g
Radioactivity level, pancreas ([2]; 60 min after i.v. injection): 1.15±0.13 %ID/g
Radioactivity level, small intestine ([2]; 5 min after i.v. injection): 15.78±6.51 %ID/g
Radioactivity level, small intestine ([2]; 15 min after i.v. injection): 30.77±8.94 %ID/g
Radioactivity level, small intestine ([2]; 30 min after i.v. injection): 27.23±12.69 %ID/g
Radioactivity level, small intestine ([2]; 60 min after i.v. injection): 13.52±4.25 %ID/g
Radioactivity level, spleen ([2]; 5 min after i.v. injection): 0.79±0.11 %ID/g
Radioactivity level, spleen ([2]; 15 min after i.v. injection): 0.55±0.07 %ID/g
Radioactivity level, spleen ([2]; 30 min after i.v. injection): 0.37±0.07 %ID/g
Radioactivity level, spleen ([2]; 60 min after i.v. injection): 0.23±0.05 %ID/g
Percentage of intact tracer in plasma ([3]; mouse plasma, 30 min post-injection, radio-HPLC, n=4): 19.9 ± 2.4%
Metabolism in vivo (mouse plasma) ([3]; within 30 min post-injection): rapidly metabolized
Structure (SMILES): COC(=O)C1=C(C)NC(C)=C(C(=O)OC)C1c1cccc(N[11C](=O)NCCCN2CCC(c3cccc(O)c3)CC2)c1 [[^11C]2]

From article PMC6379498, “Radiosynthesis and in vivo evaluation of ^11C-labeled BMS-193885 and its desmethyl analog as PET tracers for neuropeptide Y1 receptors” (EJNMMI Radiopharmacy and Chemistry, 2019)
